In patent US20250151724A1, “Liquid Soil Treatments Containing Choline” (Harrell's, LLC, priority 2023, published 2025):
Where two headings read alike, the source gives them in different places.

Tested on: creeping bentgrass putting green
Method: The study was carried out on a creeping bentgrass putting green. There were two separate trials (Trial 1 and Trial 2). Trial 1 and Trial 2 were conducted side by side. Each trial consisted of 2 treatments with 4 replications. Plot size was 5×6 ft. Regular mowing and irrigation were performed. A randomized block design was used.
The treatments were as follows: • I. Choline Trial 1-Biweekly • 1. Fertilized Control • 2. Choline 0.5 oz./1,000 ft^2 every two weeks • II. Choline Trial 2-Monthly • 1. Fertilized Control • 2. Choline 0.5 oz./1,000 ft^2 every month
Between 0.125″ and 0.25″ of irrigation was applied 3-4 hours post application. All treatments received equal fertility (applied bi-weekly) with 28-8-18 with UMAXX® fertilizer (Harrell's, Lakeland, Florida) applied on the day following application of treatments.
The trials lasted for 15 weeks and a total of 7 treatment applications in the bi-weekly trial and 4 treatment applications in the monthly trial. The following measurements data were taken at the specified intervals throughout the trials: • a. Volumetric water content (VWC) was measured with a TDR350 moisture sensor (Turf-Tec Intentional, Tallahassee, FL) every 2 weeks. In addition, beginning on days 13, 34, and 69, irrigation was withheld for about 9 days to allow gradual decline of the soil water content, inducing significant decline in leaf color and turf quality. Volumetric water content was measured at day 0 (the day of initiation of irrigation withholding), day 3, day 6, and day 9. Irrigation was resumed after day 9 of the first and second dry down cycle. […] Three readings of VWC were collected from each plot and the average was used for statistical analysis. • b. Leaf color was rated based on a visual scale of 1 through 9, with 1 indicating brown color and 9 indicating dark green color. • c. Turf quality was rated based on a visual scale of 1 through 9, with 9 indicating the best quality and 6 indicating the minimum commercially acceptable quality.

[1] = 0.5 oz/1000 ft^2 biweekly, day 0
[2] = 0.5 oz/1000 ft^2 biweekly, day 14
[3] = 0.5 oz/1000 ft^2 biweekly, day 17
[4] = 0.5 oz/1000 ft^2 biweekly, day 20
[5] = 0.5 oz/1000 ft^2 biweekly, day 22
[6] = 0.5 oz/1000 ft^2 biweekly, day 29
[7] = 0.5 oz/1000 ft^2 biweekly, day 34
[8] = 0.5 oz/1000 ft^2 biweekly, day 38
[9] = 0.5 oz/1000 ft^2 biweekly, day 41
[10] = 0.5 oz/1000 ft^2 biweekly, day 43
[11] = 0.5 oz/1000 ft^2 biweekly, day 57
[12] = 0.5 oz/1000 ft^2 biweekly, day 71
[13] = 0.5 oz/1000 ft^2 biweekly, day 76
[14] = 0.5 oz/1000 ft^2 biweekly, day 78
[15] = 0.5 oz/1000 ft^2 biweekly, day 84
[16] = 0.5 oz/1000 ft^2 biweekly, day 98
[17] = 0.5 oz/1000 ft^2 monthly, day 0
[18] = 0.5 oz/1000 ft^2 monthly, day 14
[19] = 0.5 oz/1000 ft^2 monthly, day 17
[20] = 0.5 oz/1000 ft^2 monthly, day 20
[21] = 0.5 oz/1000 ft^2 monthly, day 22
[22] = 0.5 oz/1000 ft^2 monthly, day 29
[23] = 0.5 oz/1000 ft^2 monthly, day 34
[24] = 0.5 oz/1000 ft^2 monthly, day 38
[25] = 0.5 oz/1000 ft^2 monthly, day 41
[26] = 0.5 oz/1000 ft^2 monthly, day 43
[27] = 0.5 oz/1000 ft^2 monthly, day 57
[28] = 0.5 oz/1000 ft^2 monthly, day 71
[29] = 0.5 oz/1000 ft^2 monthly, day 76
[30] = 0.5 oz/1000 ft^2 monthly, day 78
[31] = 0.5 oz/1000 ft^2 monthly, day 84
[32] = 0.5 oz/1000 ft^2 monthly, day 98

C[N+](C)(C)CCO.[Cl-] [Choline, choline chloride]
Leaf color (1-9, 9 = dark green) [1]: 7.0a | Turf quality (1-9, 9 = best) [1]: 6.9a | Leaf color (1-9, 9 = dark green) [2]: 7.0a | Turf quality (1-9, 9 = best) [2]: 7.1a | Leaf color (1-9, 9 = dark green) [3]: 7.0a | Turf quality (1-9, 9 = best) [3]: 7.0a | Leaf color (1-9, 9 = dark green) [4]: 7.0a | Turf quality (1-9, 9 = best) [4]: 7.0a | Leaf color (1-9, 9 = dark green) [5]: 6.9a | Turf quality (1-9, 9 = best) [5]: 7.0a | Leaf color (1-9, 9 = dark green) [6]: 7.0a | Turf quality (1-9, 9 = best) [6]: 7.0a | Leaf color (1-9, 9 = dark green) [7]: 7.4a | Turf quality (1-9, 9 = best) [7]: 6.9a | Leaf color (1-9, 9 = dark green) [8]: 7.5a | Turf quality (1-9, 9 = best) [8]: 7.1a | Leaf color (1-9, 9 = dark green) [9]: 7.4a | Turf quality (1-9, 9 = best) [9]: 7.0a | Leaf color (1-9, 9 = dark green) [10]: 7.1a | Turf quality (1-9, 9 = best) [10]: 6.5a | Leaf color (1-9, 9 = dark green) [11]: 6.5a | Turf quality (1-9, 9 = best) [11]: 5.9a | Leaf color (1-9, 9 = dark green) [12]: 6.4a | Turf quality (1-9, 9 = best) [12]: 6.1a | Leaf color (1-9, 9 = dark green) [13]: 6.5a | Turf quality (1-9, 9 = best) [13]: 6.0a | Leaf color (1-9, 9 = dark green) [14]: 6.4a | Turf quality (1-9, 9 = best) [14]: 5.6a | Leaf color (1-9, 9 = dark green) [15]: 6.8a | Turf quality (1-9, 9 = best) [15]: 5.8a | Leaf color (1-9, 9 = dark green) [16]: 7.0a | Turf quality (1-9, 9 = best) [16]: 6.1a | Leaf color (1-9, 9 = dark green) [17]: 7.0a | Turf quality (1-9, 9 = best) [17]: 7.0a | Leaf color (1-9, 9 = dark green) [18]: 6.9a | Turf quality (1-9, 9 = best) [18]: 6.9a | Leaf color (1-9, 9 = dark green) [19]: 7.0a | Turf quality (1-9, 9 = best) [19]: 7.0a | Leaf color (1-9, 9 = dark green) [20]: 7.0a | Turf quality (1-9, 9 = best) [20]: 7.3a | Leaf color (1-9, 9 = dark green) [21]: 6.9a | Turf quality (1-9, 9 = best) [21]: 6.6a | Leaf color (1-9, 9 = dark green) [22]: 7.0a | Turf quality (1-9, 9 = best) [22]: 6.6a | Leaf color (1-9, 9 = dark green) [23]: 7.5a | Turf quality (1-9, 9 = best) [23]: 7.3a | Leaf color (1-9, 9 = dark green) [24]: 7.1a | Turf quality (1-9, 9 = best) [24]: 7.0a | Leaf color (1-9, 9 = dark green) [25]: 7.5a | Turf quality (1-9, 9 = best) [25]: 7.0a | Leaf color (1-9, 9 = dark green) [26]: 6.9a | Turf quality (1-9, 9 = best) [26]: 6.6a | Leaf color (1-9, 9 = dark green) [27]: 7.1a | Turf quality (1-9, 9 = best) [27]: 6.8a | Leaf color (1-9, 9 = dark green) [28]: 6.9a | Turf quality (1-9, 9 = best) [28]: 6.8a | Leaf color (1-9, 9 = dark green) [29]: 7.0a | Turf quality (1-9, 9 = best) [29]: 6.6a | Leaf color (1-9, 9 = dark green) [30]: 7.0a | Turf quality (1-9, 9 = best) [30]: 6.5a | Leaf color (1-9, 9 = dark green) [31]: 7.3a | Turf quality (1-9, 9 = best) [31]: 7.0a | Leaf color (1-9, 9 = dark green) [32]: 7.7a | Turf quality (1-9, 9 = best) [32]: 7.3a
